Experimental data: patent US20020164721A1, “Design of a polyepitopic construct for the induction of HLA-A2.1 restricted HIV 1 specific CTL responses using HHD mice” (priority 1999, published 2002)
Several values for one entry are separate records, joined by “and”; a condition that tells them apart may be missing. Identical values can stand only once. Entries after “also recorded” stand apart in the source; their conditions may differ. Like-named read-outs stand apart in the source and are kept apart here.

Assays:
[1] = test system: HHD-transfected RMA-S cells loaded with variant peptides; assay: Cross-recognition of the main HIV 1 natural variants by induced CTL; assay type: in vivo, HHD mice; settings: CTL induced by the immunizing peptide; FIG. 4
Experimental: Therefore, we tested, in the four latter cases, whether the elicited CTL responses by the selected wild-type or tyrosine substituted immunizing peptides could cross-recognize natural variants of a significant representation among HIV 1 isolates.
Cytolytic activity was evaluated against peptide-loaded HHD-transfected RMA-S cells using Inf.m.G9L peptide-loaded cells as a negative control.

[2] = test system: peptide-pulsed HHD-transfected RMAS cells; assay type: in vivo, HHD mice; settings: for classification as immunogen: by number of responder mice and strength of responses, peptide in IFA; for Responder/tested mice: 100 μg peptide s.c. in IFA
[3] = test system: peptide-pulsed HHD-transfected RMAS cells; assay type: in vivo, HHD mice; settings: with helper peptide; for Responder/tested mice: 50 μg CD8 + 140 μg HBV core T13L in IFA
HLA-A2.1 molecules [4] = target: T1, HLA-A2.1 molecules (Homo sapiens, UniProt P04439, D140Y/D185E/D98H/E176V/E277Q/G131W/G231S/I119V/I121R/I166T/I218V/L300P/L318F/N151K/N90K/P208A/P217A/Q86G/Q94H/R138H/R169H/T345S); assay type: binding; settings: wild-type HIV 1 peptides; T2 cells, 37° C., brefeldine A
T1 construct: Using TAP-deficient, HLA-A2.1^+ T2 cells, we evaluated these parameters in an immunofluorescence assay; endogenous in cells; host or cells: T2 cells (TAP-deficient, HLA-A2.1+)

HLA-A2.1 molecules [5] = target: T1, HLA-A2.1 molecules; assay type: binding
[6] = test system: peptide-loaded HHD-transfected RMA-S cells and HHD-transfected HeLa cells expressing the polyepitope; assay: Melanoma polyepitopic pCMV-B10 DNA immunization of HHD mice, CTL assay; assay type: in vivo; settings: pCMV-B10 DNA with 10 melanoma epitopes, FIG. 1C and D
[7] = test system: HHD-transfected RMAS cells loaded with relevant peptide; assay: CTL response of HHD mice immunized with recombinant Ty-VLP; assay type: in vivo; settings: for lysis in % (highest specific lysis): recombinant Ty-VLP carrying the epitope, individual mice 1-6
[8] = test system: HHD-transfected RMAS cells loaded with relevant peptide; assay: CTL response of HHD mice immunized with peptide-loaded dendritic cells; assay type: in vivo; settings: for lysis in % (highest specific lysis): individual mice 1-6, usually 60/1 E/T; for lysis in % after a second in vitro restimulation: second restimulation with 10% TCGF, individual mice 1-6
[9] = test system: HHD-transfected RMA-S target cells loaded with relevant peptide; assay: CTL response of HHD mice co-immunized in IFA with tumor peptide and HBVc.128 helper peptide; assay type: in vivo; settings: for R/T (responder versus tested mice): 50 μg CD8 peptide + 140 μg HBVc.128 helper in IFA
[10] = test system: HHD-transfected RMA-S cells loaded with relevant peptide; assay: CTL response of HHD mice injected s.c. with tumor epitopic peptide in IFA (51Cr-release assay); assay type: in vivo; settings: for hierarchy of CTL inducers: peptide alone in IFA, by number of responding mice and level of specific lysis; for R/T (responder versus tested mice): peptide s.c. in IFA, no helper, responder = at least 10% specific lysis
[11] = test system: HHD-transfected RMA-S cells loaded with relevant peptide; assay: CTL response of A2A2Kb mice injected s.c. with tumor epitopic peptide in IFA (51Cr-release assay); assay type: in vivo; settings: responder = at least 10% specific lysis
[12] = test system: HHD-transfected RMAS cells loaded with relevant peptide; assay: CTL response of HHD mice immunized with lipopeptides; assay type: in vivo; settings: lipopeptide of the epitope; individual mice 1-6
[13] = test system: HHD-transfected RMAS cells loaded with relevant peptide; assay: CTL response of HHD mice immunized with monoepitopic pCMV-B10 DNA; assay type: in vivo; settings: for lysis in % (highest specific lysis): pCMV-B10 DNA encoding the epitope, individual mice 1-6
[14] = wild-type HIV 1 peptides, reference I9V, T2 cells

Sequence: ALVEICTEM [A9M, HIV 1 POL (188-196) CD8 epitopic peptide]
- cross-recognition of natural HIV 1 variants (in words) [1]: cross-lysed significantly all main natural variants
- classification as immunogen [2]: intermediate
- Responder/tested mice ([2]; without helper peptide): 3/6
- Responder/tested mice [3]: 1/6
- Maximal specific lysis (%) ([3]; each responder mouse): 31%

Sequence: EMMTACQGV [E9V]
- DC (half-life of stabilized peptide-HLA-A2.1 complexes, DC 50) (HLA-A2.1 molecules [4]): < 2 h
- classification as immunogen [2]: inefficient
- Responder/tested mice ([2]; without helper peptide): 0/6
- Responder/tested mice [3]: 0/6

Sequence: KLTPLCVSL [K9L, HIV 1 ENV gp120 (120-128) CD8 epitopic peptide]
- cross-recognition of natural HIV 1 variants (in words) [1]: lack of cross-recognition
- RA (relative affinity) (HLA-A2.1 molecules [5]; [14]): 1.35
- DC (half-life of stabilized peptide-HLA-A2.1 complexes, DC 50) (HLA-A2.1 molecules [4]): > 6 h
- classification as immunogen [2]: intermediate
- Responder/tested mice ([2]; without helper peptide): 3/6
- Responder/tested mice [3]: 4/6

Sequence: LLDTGADDTV [L10V]
- RA (relative affinity) (HLA-A2.1 molecules [5]; [14]): 10
- DC (half-life of stabilized peptide-HLA-A2.1 complexes, DC 50) (HLA-A2.1 molecules [4]): < 2 h
- classification as immunogen [2]: intermediate
- Responder/tested mice ([2]; without helper peptide): 1/6
- Maximum specific lysis (%) ([2]; without helper peptide, each responder mouse): 48%
- Responder/tested mice [3]: 0/6

Sequence: VLDVGDAYFSV [V11V]
- RA (relative affinity) (HLA-A2.1 molecules [5]; [14]): 4.5
- DC (half-life of stabilized peptide-HLA-A2.1 complexes, DC 50) (HLA-A2.1 molecules [4]): 2 h
- classification as immunogen [2]: intermediate
- Responder/tested mice ([2]; without helper peptide): 3/6
- Responder/tested mice [3]: 2/6

Sequence: VLPDVFIRC [NA17-A.nt38, NA17-A nt38-64 epitopic peptide]
- CTL response against the epitope after melanoma polyepitope DNA immunization (in words) [6]: Strong responses
- lysis in % (highest specific lysis) [7]: 55% and 39% and 50% and 60% and 59% and 61%
- CTL responses (in words) ([7]; recombinant Ty-VLP, all animals tested): strong CTL responses
- lysis in % (highest specific lysis) [8]: 0% (2×) and 3% (2×) and 5% and 6%
- lysis in % after a second in vitro restimulation [8]: (6) %; also recorded: (5) %; also recorded: (24) %; also recorded: (9) %; also recorded: (7) %; also recorded: (2) %
- RA (relative affinity) (HLA-A2.1 molecules [5]): 1.52
- R/T (responder versus tested mice) [9]: 5/6
- CTL response with helper peptide (in words) ([9]; co-injected with HBVc.128 helper, compared with peptide alone): stronger responses in a larger proportion of mice
- hierarchy of CTL inducers [10]: intermediate
- R/T (responder versus tested mice) [10]: 4/7
- R/T (responder versus tested mice) [11]: 0/6
- lysis in % (highest specific lysis) [12]: 0% (2×) and 12% and 68% and 65% and 47%
- lysis in % (highest specific lysis) [13]: 35% and 43% and 47% and 44% and 40% and 54%
- CTL responses (in words) ([13]; recombinant pCMV-B10-DNA, all animals tested): strong CTL responses

Sequence: YLEPGPVTA [gp100.280]
- CTL response against the epitope after melanoma polyepitope DNA immunization (in words) [6]: did not elicit CTL responses; also recorded: No specific lysis
- lysis in % (highest specific lysis) [7]: 8% (2×) and 3% and 1% and 4% and 18%
- lysis in % (highest specific lysis) [8]: 0%
- lysis in % after a second in vitro restimulation [8]: (1) %; also recorded: (0) %
- R/T (responder versus tested mice) [9]: 2/8
- hierarchy of CTL inducers [10]: weak
- R/T (responder versus tested mice) [10]: 3/16
- R/T (responder versus tested mice) [11]: 0/6
- lysis in % (highest specific lysis) [12]: 0% (2×) and 8% (2×) and 40% and 21%
- lysis in % (highest specific lysis) [13]: 0% (2×) and 8% and 36% and 21% and 9%
